Data on 22 compounds can be found in PMC6792352, “Limited Chemical Structural Diversity Found to Modulate Thyroid Hormone Receptor in the Tox21 Chemical Library” (Environmental Health Perspectives, 2019).

Counter-ions that a name gives are not always drawn. Like-named read-outs stand apart in the source and are kept apart here. Some results are limits rather than exact numbers.

Data set [1] has as its system thyroid hormone receptor (TR). Description: Classification of TR actives across characterization assays (TR-Ag / RXR-Ag; TR model binary). As to conditions: candidate chemicals in Tables 2 and 3 define actives. The source says:
Active rate comparison between receptors. […]; [Kleinstreuer et al. 2017]). We first removed chemicals classified as pharmaceuticals because these sets of chemicals are biased toward drugs targeting estrogen receptors and androgen receptors. […]. For TR, we cross-referenced these same chemicals for testing against TR and used candidate chemicals in Tables 2 and 3 to define active rates.
Complete results from both GH3-TRE qHTS agonist, antagonist, and viability mode for the 8,305 compounds are provided in Excel Table S2. […]. […]. Together with some potential false negatives, these chemicals, totaling 84 in all, were screened for activity in a series of assays for confirmation in the GH3-TRE-Ag assay; specificity screening in the TRβ-UAS-bla HEK 293T and RXRα-UAS-bla HEK 293T mammalian one-hybrid assays; viability assays for the HEK293T parental cell line; and orthogonal screening in two TR:coactivator recruitment assays, TRa-coa and TRb-coa. […].

A short description of another data set: in vitro. The settings on record: rat, gh3-tre-luc cells, AC50 (uM) modified / 1000.
For data set [2], the system named is thyroid hormone receptor (endogenous TRα and TRβ). Description: GH3-TRE-Ag primary qHTS, luciferase reporter, agonist mode (TOX21_TR_LUC_GH3_Agonist, aeid 803). The format is cell-based, rat. A general note: Quantitative high-throughput screening tests each substance at several concentrations.
The subject of the next data set is GH3-TRE-Luc cell line. As to conditions: read-out: AC50 (uM) modified / 1000, viability, 1 nM T3 present, 24 h.
The mark [3] stands for this setting: aeid 803 TOX21_TR_LUC_GH3_Agonist, tcpl output.

Take `CC(=O)OC(C)c1ccccc1` (racemic) [(+/-)-alpha-Methylbenzyl acetate]: in data set [1], the TR_Model_Binary_Agonist came to 0 and the TR_Model_Binary_Antagonist was determined as 0. The compound also came in with a CC50 at 24 h in “in vitro” of over 90 µM.

In the case of `N[C@@H](Cc1cc(I)c(O)c(I)c1)C(=O)O` [3,5-diiodo-L-tyrosine], in data set [2], the “activity in GH3-TRE agonist assay” value is “completely inactive” and the max_mean turned out to be 0.9106 percent_activity. In addition, the max_med in data set [2] (aeid 803, at max_med_conc (log) -0.39794, coff 20) is 0.5533 percent_activity. In addition, the hitc in data set [2] (aeid 803 TOX21_TR_LUC_GH3_Agonist, modl cnst) was 0. Further, in data set [2] (setting [3]), the resp_max turned out to be 3.287 percent_activity and the resp_min is -1.703 percent_activity. This compound gave a CC50 at 24 h in the data set “in vitro” of over 50 µM.

Turning to `CCCCCCCCCC=CCC1CC(=O)OC1=O` (stereo not shown) [(2-Dodecenyl)succinic anhydride], in data set [1], the TR_Model_Binary_Agonist was determined as 0 and the TR_Model_Binary_Antagonist was found to be 0. The compound also had a CC50 at 24 h in the data set “in vitro” of over 90 µM.

A word on the AC50: it is the midpoint of the concentration-response curve, whichever way the signal moves. `O=C([O-])[C@H](O)[C@@H](O)[C@H](O)[C@H](O)CO.O=C([O-])[C@H](O)[C@@H](O)[C@H](O)[C@H](O)CO.[Ba+2]` [D-Gluconic acid, barium salt]: the “resp_max (maximum response value)” value in data set [2] (Table S2, aeid 803, per sample) is given as 3.109 percent_activity. The hitc in data set [2] (Table S2, aeid 803, tcpl hit call) is recorded as 0. This compound also registered a hitc_modified in data set [2] (Table S2, aeid 803, final hitc after manual review) of 0. Further, the half-maximal activity concentration (AC50) in data set [2] (Table S2, aeid 803, inactive set to 1000, read-out: AC50 (uM) modified) was over 50 µM.

As for `CN(C)CCOc1ccc(/C(=C(/CCCl)c2ccccc2)c2ccccc2)cc1` [Toremifene citrate], the CC50 in the data set with GH3-TRE-Luc cell line (Tox21_110001=Tox21_111877) was determined as 11.4 µM. In the data set “in vitro”, this compound displayed a CC50 at 24 h of 8.87 µM.

With `COc1cc2c(cc1O)CCN[C@]21CS[C@@H]2c3c(OC(C)=O)c(C)c4c(c3[C@H](COC1=O)N1[C@@H]2[C@H]2c3c(cc(C)c(OC)c3O)C[C@@H]([C@@H]1O)N2C)OCO4` [Trabectedin], the CC50 in the data set on GH3-TRE-Luc cell line (Tox21_110001=Tox21_113236) came to 0.0049 µM. Further, in “in vitro”, the CC50 at 24 h worked out at 0.00433 µM.

For the compound `CC(C)N(C(=O)SCC(Cl)=C(Cl)Cl)C(C)C` [Tri-allate], in the data set on GH3-TRE-Luc cell line (Tox21_110001=Tox21_300671), the CC50 is 53.5 µM. The compound further returned a CC50 at 24 h in the data set “in vitro” of 55.9 µM.

On to `CCCCCCCCCCCCCC[P+](CCCC)(CCCC)CCCC` [Tributyltetradecylphosphonium chloride], for which the CC50 in the data set on GH3-TRE-Luc cell line (Tox21_110001=Tox21_303556) worked out at 3.3 µM. This compound displayed a CC50 at 24 h in the data set “in vitro” of 2.96 µM.

Regarding `O=C(Nc1ccc(Cl)cc1)Nc1ccc(Cl)c(Cl)c1` [Triclocarban], the CC50 came to 3.75 µM in the data set on GH3-TRE-Luc cell line (Tox21_110001=Tox21_112078) and 3.32 µM with GH3-TRE-Luc cell line (Tox21_110001=Tox21_300481). The CC50 at 24 h in the data set “in vitro” came out at 6.61 µM.

As for `CCCN(CCC)c1c([N+](=O)[O-])cc(C(F)(F)F)cc1[N+](=O)[O-]` [Trifluralin], in the data set with GH3-TRE-Luc cell line (Tox21_110001=Tox21_300918), the CC50 was 62.5 µM. Moreover, the CC50 at 24 h in the data set “in vitro” is over 90 µM.

For `O=c1n(CC2CO2)c(=O)n(CC2CO2)c(=O)n1CC1CO1` (stereo not shown) [Triglycidyl isocyanurate], the CC50 in the data set on GH3-TRE-Luc cell line (Tox21_110001=Tox21_111097) was 26.2 µM; in the data set on GH3-TRE-Luc cell line (Tox21_110001=Tox21_300119), 33.9 µM. Further, the CC50 at 24 h in “in vitro” was found to be 27.2 µM.

Consider `O=P(OC(CCl)CCl)(OC(CCl)CCl)OC(CCl)CCl` [Tris(1,3-dichloro-2-propyl) phosphate], for which, in the data set with GH3-TRE-Luc cell line (Tox21_110001=Tox21_300194), the CC50 was found to be 36.6 µM. For the same compound, the CC50 at 24 h in “in vitro” was 61.2 µM.

On to `Cc1c(C)c2c(c(C)c1O)CCC(C)(COc1ccc(CC3SC(=O)NC3=O)cc1)O2` (stereo not shown) [Troglitazone], for which the CC50 in the data set with GH3-TRE-Luc cell line (Tox21_110001=Tox21_112119) was 41.3 µM. For the same compound, in “in vitro”, the CC50 at 24 h turned out to be 54.8 µM.

In the case of `CCOC(=O)C1=C[C@]2(CC)CCCN3CCc4c(n1c1ccccc41)[C@@H]32` [Vinpocetine], in the data set with GH3-TRE-Luc cell line (Tox21_110001=Tox21_110839), the CC50 came to 12 µM. Also, in “in vitro”, the CC50 at 24 h was 22.7 µM.

In the case of `C=C1CC[C@H](O)C/C1=C/C=C1\CCC[C@]2(C)[C@@H]([C@H](C)CCCC(C)C)CC[C@@H]12` [Vitamin D3], the CC50 in the data set with GH3-TRE-Luc cell line (Tox21_110001=Tox21_111578) is 24.3 µM. The CC50 at 24 h in the data set “in vitro” is 44.3 µM.

Take `CC1=C(/C=C/C(C)=C/C=C/C(C)=C/C(=O)O)C(C)(C)CCC1` [all trans-Retinoic acid]: in the data set with GH3-TRE-Luc cell line (Tox21_110001=Tox21_300305), the CC50 turned out to be 77.6 µM. Further, the CC50 at 24 h in “in vitro” was found to be 71.8 µM.

Consider `Clc1ccc(C(c2ccccc2Cl)C(Cl)Cl)cc1` (stereo not shown) [o,p'-DDD], for which the CC50 in the data set on GH3-TRE-Luc cell line (Tox21_110001=Tox21_110103) is 41.9 µM. The compound further registered a CC50 at 24 h in the data set “in vitro” of 56.7 µM.

In the case of `Clc1ccc(C(c2ccccc2Cl)C(Cl)(Cl)Cl)cc1` (stereo not shown) [o,p'-DDT], the CC50 in the data set on GH3-TRE-Luc cell line (Tox21_110001=Tox21_300622) stood at 39.9 µM. The same compound registered a CC50 at 24 h in “in vitro” of 34 µM.

Consider `Clc1ccc(C(c2ccc(Cl)cc2)C(Cl)Cl)cc1` [p,p'-DDD], for which the CC50 in the data set with GH3-TRE-Luc cell line (Tox21_110001=Tox21_300191) turned out to be 35.5 µM. Further, the CC50 at 24 h in the data set “in vitro” was determined as 27.9 µM.

Turning to `ClC(Cl)=C(c1ccc(Cl)cc1)c1ccc(Cl)cc1` [p,p'-DDE], the CC50 with GH3-TRE-Luc cell line (Tox21_110001=Tox21_300109) was 63.5 µM. This compound gave a CC50 at 24 h in the data set “in vitro” of 48.6 µM.

As to `Cc1cc(C2(c3cc(C)c(O)cc3C)OS(=O)(=O)c3ccccc32)c(C)cc1O` [p-Xylenol blue], the CC50 in the data set on GH3-TRE-Luc cell line (Tox21_110001=Tox21_303062) was found to be 47.5 µM. Moreover, the CC50 at 24 h in the data set “in vitro” amounted to 56.6 µM.

On to `NC(CO)(CO)CO` [tromethamine], for which, in data set [2], the “activity in GH3-TRE agonist assay” value was “completely inactive”. In “in vitro”, the CC50 at 24 h is over 90 µM.
